This test deals with T1, human leukocyte elastase (Homo sapiens, UniProt P08246).
T1 sequence (P08246 30-267): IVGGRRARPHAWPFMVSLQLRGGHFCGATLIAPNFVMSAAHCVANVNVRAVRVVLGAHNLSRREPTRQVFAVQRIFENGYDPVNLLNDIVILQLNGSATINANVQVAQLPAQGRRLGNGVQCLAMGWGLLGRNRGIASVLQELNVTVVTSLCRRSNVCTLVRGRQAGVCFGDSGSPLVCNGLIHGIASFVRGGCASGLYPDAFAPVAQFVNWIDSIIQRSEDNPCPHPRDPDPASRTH
The experiment in a line: in vitro human leukocyte elastase inhibiting activity (fluorogenic substrate, method of JP-A-2-101017 with slight modification). The class given is biochemical. The protocol: Thus, methoxysuccinyl-Ala-Ala-Pro-Val-7-amido-4-methylcoumarin was used as a substrate for human leukocyte elastase and the 50% inhibitory concentration (IC₅₀) was measured. The enzymatic reaction was carried out in 0.2 M Tris-hydrochloride buffer (containing 0.02 M CaCl₂ and 0.005% Triton X-100) at pH 7.2. Each mixture of test compound solution and the enzyme solution was incubated at 25°C for 20 minutes.

Where [1] appears, read: 50% inhibitory concentration, substrate methoxysuccinyl-Ala-Ala-Pro-Val-7-amido-4-methylcoumarin, 0.2 M Tris-hydrochloride buffer (0.02 M CaCl2, 0.005% Triton X-100), pH 7.2, compound and enzyme incubated at 25°C for 20 minutes, read-out: IC50.

Where two headings read alike, the source gives them in different places.

As to `CC(C)(C)OC(=O)Nc1ccc(C(=O)Oc2cc(C=O)ccc2[N+](=O)[O-])cc1` [Compound 47, 3-formyl-6-nitrophenyl 4-(tert-butoxycarbonylamino)benzoate], the IC50 under setting [1] is 3.8 nM. As for `CC(C)C(=O)Nc1ccc(C(=O)Oc2ccccc2[N+](=O)[O-])cc1` [Compound 48, 6-nitrophenyl 4-(isobutanoylamino)benzoate], under setting [1], the IC50 was determined as 16 nM.

With `CC(C)C(=O)Nc1ccc(C(=O)Oc2cccc(O)c2[N+](=O)[O-])cc1` [Compound 49, 5-hydroxy-6-nitrophenyl 4-(isobutanoylamino)benzoate], the IC50 under setting [1] is 180 nM. Compound `CC(C)C(=O)Nc1ccc(C(=O)Oc2cc([N+](=O)[O-])ccc2[N+](=O)[O-])cc1` [Compound 50, 2,5-dinitrophenyl 4-(isobutanoylamino)benzoate] showed an IC50 of 4.7 nM. For `CC(C)C(=O)Nc1ccc(C(=O)Oc2cc(F)ccc2[N+](=O)[O-])cc1` [Compound 51, 3-fluoro-6-nitrophenyl 4-(isobutanoylamino)benzoate], the IC50 under setting [1] is 2.6 nM.

Turning to `Cc1ccc([N+](=O)[O-])c(OC(=O)c2ccc(NC(=O)C(C)C)cc2)c1` [Compound 52, 3-methyl-6-nitrophenyl 4-(isobutanoylamino)benzoate], under setting [1], the IC50 was 15 nM. As for `CC(C)C(=O)Nc1ccc(C(=O)Oc2cc(C=O)ccc2[N+](=O)[O-])cc1` [Compound 53, 3-formyl-6-nitrophenyl 4-(isobutanoylamino)benzoate], the IC50 under setting [1] turned out to be 3.4 nM. Same read-out and setting: in the case of `CC(C)C(=O)Nc1ccc(C(=O)Oc2cc(C(=O)O)ccc2[N+](=O)[O-])cc1` [Compound 54, 3-hydroxycarbonyl-6-nitrophenyl 4-(isobutanoylamino)benzoate] it was 2.1 nM; in that of `COC(=O)c1ccc([N+](=O)[O-])c(OC(=O)c2ccc(NC(=O)C(C)C)cc2)c1` [Compound 55, 3-methoxycarbonyl-6-nitrophenyl 4-(isobutanoylamino)benzoate], 3.6 nM; in that of `COc1ccc(COC(=O)c2ccc([N+](=O)[O-])c(OC(=O)c3ccc(NC(=O)C(C)C)cc3)c2)cc1` [Compound 56], 8.4 nM. Still for that read-out and setting: in the case of `CC(C)(C)C(=O)Nc1ccc(C(=O)Oc2cc(Cl)cc(OC(=O)C3CC3)c2)cc1` [Compound 57, 3-chloro-5-(cyclopropanecarbonyloxy)phenyl 4-(pivaloylamino)benzoate] it was 2.9 nM. In turn, `CN(C)C(=O)Oc1cc(Cl)cc(OC(=O)c2ccc(NC(=O)C(C)(C)C)cc2)c1` [Compound 58, 3-chloro-5-(dimethylaminocarbonyloxy)phenyl 4-(pivaloylamino)benzoate] came in with an IC50 of 3.5 nM. On to `CC(C)(C)C(=O)Nc1ccc(C(=O)Oc2cc(F)ccc2[N+](=O)[O-])cc1` [Compound 59, 3-fluoro-6-nitrophenyl 4-(pivaloylamino)benzoate], for which the IC50 under setting [1] was 2.7 nM. The same measure, in the same setting: under `CC(C)(C)C(=O)Nc1ccc(C(=O)Oc2cc(C=O)ccc2[N+](=O)[O-])cc1` [Compound 60, 3-formyl-6-nitrophenyl 4-(pivaloylamino)benzoate] stands 4.2 nM; under `CC(C)C(=O)Nc1ccc(C(=O)Oc2ccccc2C#N)cc1` [Compound 61, 2-cyanophenyl 4-(isobutanoylamino)benzoate], 9.3 nM; under `CC(C)C(=O)Nc1ccc(C(=O)Oc2cc(Cl)ccc2C#N)cc1` [Compound 62, 3-chloro-6-cyanophenyl 4-(isobutanoylamino)benzoate], 1.3 nM.

`COC(=O)c1ccc(Cl)cc1OC(=O)c1ccc(NC(=O)C(C)C)cc1` [Compound 63, 3-chloro-6-(methoxycarbonyl)phenyl 4-(isobutanoylamino)benzoate]: the IC50 under setting [1] stood at 97 nM.

In the case of `CC(C)C(=O)Nc1ccc(C(=O)Oc2cc(C(F)(F)F)cc(C(F)(F)F)c2)cc1` [Compound 64], the IC50 under setting [1] is 220 nM. On to `CC(C)C(=O)Nc1ccc(C(=O)Oc2cc(Cl)cc(Cl)c2Cl)cc1` [Compound 65, 2,3,5-trichlorophenyl 4-(isobutanoylamino)benzoate], for which the IC50 under setting [1] came out at 4.5 nM. The same measure, in the same setting: under `CC(C)C(=O)Nc1ccc(C(=O)Oc2c(Cl)cccc2Cl)cc1` [Compound 66, 2,6-dichlorophenyl 4-(isobutanoylamino)benzoate] stands 94 nM. Same read-out and setting: under `CC(C)C(=O)Nc1ccc(C(=O)Oc2cccc(F)c2F)cc1` [Compound 67, 2,3-difluorophenyl 4-(isobutanoylamino)benzoate] stands 88 nM; under `CC(C)C(=O)Nc1ccc(C(=O)Oc2cc(F)ccc2F)cc1` [Compound 68, 2,5-difluorophenyl 4-(isobutanoylamino)benzoate], 110 nM; under `CC(C)C(=O)Nc1ccc(C(=O)Oc2c(F)cccc2F)cc1` [Compound 69, 2,6-difluorophenyl 4-(isobutanoylamino)benzoate], 25 nM. Same read-out and setting: under `CC(C)C(=O)Nc1ccc(C(=O)Oc2cc(F)cc(F)c2)cc1` [Compound 70, 3,5-difluorophenyl 4-(isobutanoylamino)benzoate] stands 26 nM; under `CC(C)C(=O)Nc1ccc(C(=O)Oc2cccc(F)c2)cc1` [Compound 71, 3-fluorophenyl 4-(isobutanoylamino)benzoate], 310 nM; under `CC(C)C(=O)Nc1ccc(C(=O)Oc2cccc(Br)c2)cc1` [Compound 72, 3-bromophenyl 4-(isobutanoylamino)benzoate], 21 nM.

In the case of `CC(C)C(=O)Nc1ccc(C(=O)Oc2cc(O)cc(Cl)c2)cc1` [Compound 73, 3-chloro-5-hydroxyphenyl 4-(isobutanoylamino)benzoate], the IC50 under setting [1] is 110 nM. Same read-out and setting: in the case of `CC(=O)Oc1cc(Cl)cc(OC(=O)c2ccc(NC(=O)C(C)C)cc2)c1` [Compound 74, 3-acetoxy-5-chlorophenyl 4-(isobutanoylamino)benzoate] it was 3.3 nM; in that of `CCC(=O)Oc1cc(Cl)cc(OC(=O)c2ccc(NC(=O)C(C)C)cc2)c1` [Compound 75, 3-chloro-5-propanoyloxyphenyl 4-(isobutanoylamino)benzoate], 2.5 nM.

As to `CC(C)C(=O)Nc1ccc(C(=O)Oc2cc(Cl)cc(OC(=O)C(C)C)c2)cc1` [Compound 76, 3-chloro-5-isobutanoyloxyphenyl 4-(isobutanoylamino)benzoate], the IC50 under setting [1] came to 1.9 nM. On the same count and under the same terms, under `CC(C)C(=O)Nc1ccc(C(=O)Oc2cc(Cl)cc(OC(=O)C3CC3)c2)cc1` [Compound 77, 3-chloro-5-(cyclopropanecarbonyloxy)phenyl 4-(isobutanoylamino)benzoate] stands 3.8 nM; under `CC(C)C(=O)Nc1ccc(C(=O)Oc2cc(Cl)cc(OC(=O)C3(C)CC3)c2)cc1` [Compound 78, 3-chloro-5-(1-methylcyclopropanecarbonyloxy)phenyl 4-(isobutanoylamino)benzoate], 9.6 nM; under `CC(C)C(=O)Nc1ccc(C(=O)Oc2cc(Cl)cc(OC(=O)C3CCCCC3)c2)cc1` [Compound 79, 3-chloro-5-(cyclohexanecarbonyloxy)phenyl 4-(isobutanoylamino)benzoate], 110 nM. Same read-out and setting: under `CC(C)C(=O)Nc1ccc(C(=O)Oc2cc(Cl)cc(OC(=O)C=Cc3ccccc3)c2)cc1` [Compound 80, 3-cinnamoyloxy-5-chlorophenyl 4-(isobutanoylamino)benzoate] stands 24 nM. As for `CC(C)C(=O)Nc1ccc(C(=O)Oc2cc(Cl)cc(OC(=O)N(C)C)c2)cc1` [Compound 81, 3-chloro-5-(dimethylaminocarbonyloxy)phenyl 4-(isobutanoylamino)benzoate], inhibition was half-maximal at 6.5 nM (IC50).

In the case of `CC(C)C(=O)Nc1ccc(C(=O)Oc2cc(Cl)cc(OS(C)(=O)=O)c2)cc1` [Compound 82, 3-chloro-5-(methanesulfonyloxy)phenyl 4-(isobutanoylamino)benzoate], the IC50 under setting [1] came to 18 nM. As for `CCS(=O)(=O)Oc1cc(Cl)cc(OC(=O)c2ccc(NC(=O)C(C)C)cc2)c1` [Compound 83, 3-chloro-5-(ethanesulfonyloxy)phenyl 4-(isobutanoylamino)benzoate], the IC50 under setting [1] turned out to be 25 nM. As for `CC(C)C(=O)Nc1ccc(C(=O)Oc2cc(Cl)cc(OS(=O)(=O)Cc3ccccc3)c2)cc1` [Compound 84, 3-chloro-5-(phenylmethanesulfonyloxy)phenyl 4-(isobutanoylamino)benzoate], under setting [1], the IC50 came to 21 nM.

Regarding `CC(C)C(=O)Nc1ccc(C(=O)Oc2cc(Cl)cc(OS(=O)(=O)c3ccccc3)c2)cc1` [Compound 85, 3-benzenesulfonyloxy-5-chlorophenyl 4-(isobutanoylamino)benzoate], the IC50 under setting [1] is 24 nM.

Turning to `CC(C)C(=O)Nc1ccc(C(=O)Oc2cc(Cl)cc(OS(=O)(=O)C=Cc3ccccc3)c2)cc1` [Compound 86, 3-chloro-5-(β-styrenesulfonyloxy)phenyl 4-(isobutanoylamino)benzoate], the IC50 under setting [1] is 24 nM.

Turning to `CC(C)C(=O)Nc1ccc(C(=O)Oc2cc(Cl)cc(OS(=O)(=O)c3cccs3)c2)cc1` [Compound 87, 3-chloro-5-(2-thiophenesulfonyloxy)phenyl 4-(isobutanoylamino)benzoate], the IC50 under setting [1] was 19 nM. Same read-out and setting: in the case of `CC(C)C(=O)Nc1ccc(C(=O)Oc2cc(Cl)cc(OCc3ccccc3)c2)cc1` [Compound 88, 3-benzyloxy-5-chlorophenyl 4-(isobutanoylamino)benzoate] it was 48 nM. Regarding `CC(C)C(=O)Nc1ccc(C(=O)Oc2cccc(OC(F)(F)F)c2)cc1` [Compound 89, 3-trifluoromethoxyphenyl 4-(isobutanoylamino)benzoate], the IC50 under setting [1] stood at 400 nM.

What is called IC50 is the concentration at which inhibition is half-maximal.

The record behind these values is patent publication EP0475531A1, “Benzoic acid phenylester compounds and elastase inhibiting compositions containing the same” (Asahi Kasei Kogyo Kabushiki Kaisha, priority 1990, dated 1992).
